# Measurements published in the supplement of paper PMC10307832.
# Assays:
# Experiment in all cases: relative viability (nuclei count vs DMSO), 5 days (fraction); higher = more cells survive
# Carfilzomib + Trametinib = compound: CC(C)C[C@H](NC(=O)[C@H](CCc1ccccc1)NC(=O)CN1CCOCC1)C(=O)N[C@@H](Cc1ccccc1)C(=O)N[C@@H](CC(C)C)C(=O)[C@@]1(C)CO1 [Carfilzomib] + CC(=O)Nc1cccc(-n2c(=O)n(C3CC3)c(=O)c3c(Nc4ccc(I)cc4F)n(C)c(=O)c(C)c32)c1 [Trametinib] (partner 0.02 µM)
# Method in brief: (§1)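 Relative viability equals treated-well nuclei counts divided by vehicle-well nuclei counts. Counts came from 4× images of lung cancer cell lines grown in 1536-well plates for 5 days after pin-tool dosing on the day after seeding. Dosing used one drug alone or a fixed anchor-drug dose plus five library-drug doses (not always all listed) in √10 steps, and values are medians of duplicate plates.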
# Carfilzomib + AZD7762 = compound: CC(C)C[C@H](NC(=O)[C@H](CCc1ccccc1)NC(=O)CN1CCOCC1)C(=O)N[C@@H](Cc1ccccc1)C(=O)N[C@@H](CC(C)C)C(=O)[C@@]1(C)CO1 [Carfilzomib] + NC(=O)Nc1cc(-c2cccc(F)c2)sc1C(=O)N[C@H]1CCCNC1 [AZD7762] (partner 0.2 µM)
# Method in brief: as §1
# Crizotinib + Pemetrexed = compound: C[C@@H](Oc1cc(-c2cnn(C3CCNCC3)c2)cnc1N)c1c(Cl)ccc(F)c1Cl [Crizotinib] + Nc1nc2[nH]cc(CCc3ccc(C(=O)N[C@@H](CCC(=O)O)C(=O)O)cc3)c2c(=O)[nH]1 [Pemetrexed] (partner 0.2 µM)
# Method in brief: as §1
# Olaparib + Linsitinib = compound: O=C(c1cc(Cc2n[nH]c(=O)c3ccccc23)ccc1F)N1CCN(C(=O)C2CC2)CC1 [Olaparib] + C[C@]1(O)C[C@@H](c2nc(-c3ccc4ccc(-c5ccccc5)nc4c3)c3c(N)nccn32)C1 [Linsitinib] (partner 1 µM)
# Method in brief: as §1
Cell Line,relative viability (Carfilzomib + Trametinib; first compound 0.001 µM),relative viability (Carfilzomib + Trametinib; first compound 0.003162 µM),relative viability (Carfilzomib + Trametinib; first compound 0.01 µM),relative viability (Carfilzomib + Trametinib; first compound 0.03162 µM),relative viability (Carfilzomib + Trametinib; first compound 0.1 µM),relative viability (Carfilzomib + AZD7762; first compound 0.001 µM),relative viability (Carfilzomib + AZD7762; first compound 0.003162 µM),relative viability (Carfilzomib + AZD7762; first compound 0.01 µM),relative viability (Carfilzomib + AZD7762; first compound 0.03162 µM),relative viability (Carfilzomib + AZD7762; first compound 0.1 µM),relative viability (Crizotinib + Pemetrexed; first compound 0.01 µM),relative viability (Crizotinib + Pemetrexed; first compound 0.03162 µM),relative viability (Crizotinib + Pemetrexed; first compound 0.1 µM),relative viability (Crizotinib + Pemetrexed; first compound 0.3162 µM),relative viability (Crizotinib + Pemetrexed; first compound 1 µM),relative viability (Olaparib + Linsitinib; first compound 0.08 µM),relative viability (Olaparib + Linsitinib; first compound 0.253 µM),relative viability (Olaparib + Linsitinib; first compound 2.53 µM),relative viability (Olaparib + Linsitinib; first compound 8 µM)
NCI-H1944,0.457,0.464,0.398,0.473,0.202,0.538,0.568,0.587,0.448,0.317,0.499,0.614,0.621,0.605,0.652,1.22,1.05,1.12,0.876
NCI-H1975,0.267,0.312,0.33,0.102,0.101,0.651,0.804,0.684,0.222,0.19,0.296,0.3,0.287,0.301,0.291,1.02,0.95,0.9,0.895
NCI-H1993,0.51,0.471,0.603,0.53,0.481,0.625,0.841,0.69,0.589,0.503,0.57,0.632,0.503,0.528,0.47,0.745,0.749,0.831,0.78
NCI-H2085,0.498,0.503,0.478,0.35,0.223,0.726,0.942,0.988,0.321,0.293,0.808,0.978,0.856,0.749,0.904,0.982,0.868,0.819,0.677
NCI-H2087,0.187,0.235,0.131,0.0842,0.0653,1.21,1.31,0.946,0.515,0.0622,0.725,0.724,0.553,0.702,0.723,0.984,0.912,0.83,0.685
NCI-H2126,0.516,0.61,0.58,0.563,0.447,0.875,1,1.01,1.01,0.697,0.616,,0.68,0.659,0.724,0.808,0.641,0.698,0.7
NCI-H2347,0.269,0.23,0.298,0.292,0.262,0.696,0.814,0.642,0.229,0.289,0.387,0.441,0.446,0.457,0.416,1.03,0.879,0.823,0.816
NCI-H2405,0.758,0.748,0.686,0.536,0.236,0.717,0.783,0.932,0.689,0.262,0.875,1.09,1.04,0.993,,1.15,0.93,0.915,0.851
NCI-H3122,0.196,0.234,0.255,0.244,0.239,0.948,1.05,1,0.895,0.588,0.192,0.196,0.195,0.182,0.192,0.95,1.04,0.954,0.899
PC-3 [JPC-3],0.77,0.679,0.706,0.552,0.279,0.882,0.762,0.993,0.512,0.248,0.883,1.23,1.19,,1.05,0.93,0.914,0.962,0.908
PC-14,0.749,0.672,0.588,0.0506,0.0646,0.377,0.368,0.392,0.158,0.0776,0.124,0.127,0.134,0.143,0.132,1.02,0.856,0.859,0.815
RERF-LC-KJ,0.864,0.908,0.941,0.511,0.211,0.827,1.11,1.24,0.927,0.309,0.475,0.459,0.461,0.473,0.517,0.939,0.903,0.948,0.902
